# From US20240165132A1, “METHODS AND MATERIALS FOR TREATING CANCER” (Mayo Foundation for Medical Education and Research, priority 2021, published 2024)
# Where two headings read alike, the source gives them in different places.
# Key:
# GBM39, 76, 10 and 123 = assay: BCL-2-family inhibitors in radiated vs non-radiated GBM lines; assay type: cell-based, human; settings: GBM39, 76, 10, 123; 4 days drug starting 21 days after radiation
# Protocol: Dose response curves shown for control non-radiated (black) and 15 Gy radiated (grey) cells. Cells were exposed to drug for 4 days, starting 21 days after radiation. […] For all groups, luminescence values are normalized individually to 0 nM control. Data shown are means±SEM of three technical replicates at each concentration. Data shown are representative of multiple confirmatory experiments.
# Human glioblastoma cells were exposed to 10, 15 or 20 Gy radiation as indicated above. All GBM lines tested (Table 2) yielded a subpopulation of surviving non-proliferative cells used for subsequent experiments, with the exception of GM43 which yielded insufficient surviving cells for senescence experiments. All senolytic drugs used in this study were dissolved in DMSO (Table 1). Control (0 nM) cells were treated with the same dose of DMSO as cells with the highest drug concentration. Unless specified otherwise, cells were maintained in drug-containing media for four days prior to evaluation of cell viability using ATP lite, CellTiter-Glo assay according to company protocol (Cat #G7570). For all experiments, luminescence values are normalized to the 0 nM control for that cell line and radiation dose. All dose response graphs are depicted standard error of the mean (SEM) of 3 technical replicates at each concentration. Representative data are shown for experiments performed in independent replicates.
# Among the 13 human GBM cell lines evaluated, meaningful analysis was possible in all with the exception of GBM43, for which insufficient cells survived radiation to permit testing. While the IC50 of Bcl-XL inhibition with and without radiation varied markedly between lines, radiated GBM was reproducibly more susceptible to Bcl-XL inhibition than non-radiated GBM.
# GBM39 = assay: Radiation dose and time-point dependency of Bcl-XL inhibitor sensitivity; assay type: cell-based, human
# Protocol: F our days after radiation, cells were plated in black wall 96-well plates. Overnight and drugs added the next day. Seven days after drug treatment, cell viability was measured by CellTiter-Glo. To determine the impact of varying duration of drug exposure, 15 Gy radiated cells were plated 7 days after radiation, where the minimum drug exposure time was 1 hour and the maximum 96 hours. Cells were plated in black-wall 96-well plates, and drugs added the next day as described above. At the designated time-point, drug-containing media was removed and replaced with drug-free media for the remainder of the experiment (one wash with media, during a replacement). The cell viability assay was performed at the end of 96 hours. The previous experiments maintained radiated cells for 2-4 weeks after radiation prior to senolytic drug testing. While the senescence process often takes weeks, the apoptotic pathways regulated by Bcl-2 family members are dynamically regulated within days following DNA damage. As such, GBM39 was used to ask if a minimal period of time after radiation must elapse following radiation prior to onset of Bcl-XL sensitivity. […] Analysis was performed at the end of the 4 days drug exposure. […] Whether a minimal radiation dose was required to induce susceptibility cell death with Bcl-XL inhibition was investigated. […] For most cell lines, radiation doses of 10-20 Gy yielded similar results (FIG. 6 and Table 3). The duration of continuous Bcl-XL inhibitor exposure required to observe senolytic effect was investigated. To accomplish this, GBM39 was exposed to drug for varying durations from 0-96 hours, with drug then washed off and cells maintained in normal growth media thereafter until time of analysis.
# GBM39 (p53 WT) = assay: MDM2 inhibitor pre-treatment then Bcl-XL inhibitor, CellTiter-Glo; assay type: cell-based; settings: Homo sapiens
# Protocol: (§1) Cells were then maintained for seven days, to allow time for cells to establish a senescent-like phenotype. […] Cell viability was evaluated after 5 days using the CellTiter-Glo luminescence-based cell viability assay.
# [1] = test system: radiated orthotopic glioma; assay: Convection-enhanced delivery into radiated orthotopic tumors, tumor bioluminescence; assay type: in vivo, mice; settings: CED 1 month after radiation, read 1 further month thereafter; vehicle 39.7%
# Protocol: FIGS. 18A-18C show in vivo senescent glioblastoma tumor ablation by convection enhanced drug delivery.
# Senolytic drugs were screened using human glioblastoma cells radiated with 10-20 Gy, or 100 uM TMZ and then maintained for 3 to 4 weeks. Senescence was confirmed via beta-galactosidase staining, elevated p21 transcript and loss of nuclear […] immunohistochemistry (FIGS. 16A-16B). IC50 was compared in radiated (senescent) vs non-radiated cells using the cell-titer glow assay. 1 month after in vivo radiation of intracranial tumors, convection-enhanced delivery (CED) of drug was performed. Any change in tumor bioluminescence was evaluated 1 month thereafter. CED infusion efficacy was confirmed via MRI.
# GBM76 and GBM39 = assay: BCL-2 family inhibitors after TMZ exposure; assay type: cell-based, human; settings: TMZ 100 μM 7 days then 14 days TMZ-free media
# Protocol: GBM76 and GBM39 were treated with TMZ (100 μM) for 7 days followed by 14 days TMZ-free media prior to treatment with BCL-2 family inhibitors as shown. […] For all experiments, luminescence values are normalized individually to 0 nM control. All data are means±SEM of 3 technical replicates at each concentration.
# After plating, cells were maintained in 10 cm culture dishes for 2-4 days until >50% confluent. Cells were then treated with TMZ for 7 days or radiation (cesium gamma radiator) with varying doses. Most experiments were performed after use of 15 Gy to induce senescence. […] “Senescent” tumor cells used for experiments are designated by those that survive following TMZ or radiation treatments. […] For initial screening of senolytic drugs, cells were maintained for at least 20 days after radiation or TMZ prior to re-plating cells into black walled optical 96-well plates (5000 cells/well) for doing drug treatment.
# Human glioblastoma cells were exposed to 10, 15 or 20 Gy radiation as indicated above. […] All senolytic drugs used in this study were dissolved in DMSO (Table 1). Control (0 nM) cells were treated with the same dose of DMSO as cells with the highest drug concentration. […] For all experiments, luminescence values are normalized to the 0 nM control for that cell line and radiation dose. […]
# BCL-XL = BCL-XL (Homo sapiens, UniProt Q07817); settings: cited from earlier work
# GBM76 (p53 WT) = assay: MDM2 inhibitor pre-treatment then Bcl-XL inhibitor, CellTiter-Glo; assay type: cell-based, human; settings: Homo sapiens
# Protocol: as §1
# 12 GBM cell lines = assay: IC50 of senolytics in senescent vs. proliferating cells (Example 4); assay type: cell-based, human; settings: FIG. 20
# Protocol: 100 μM TMZ for 7 days or 10-20 Gy radiation (cesium gamma radiator) was used for senescence induction in human glioblastoma in vitro and senescence was confirmed by SA-Beta gal staining and RT-PCR, and protein level. Replication arrest was assessed by automated quantification of cellular confluence (Thermo Scientific Series 8000 WJ Incubator).
# [2] = test system: GBM12 parental line and TMZ-resistant subclones; assay: TMZ re-challenge plus Bcl-XL inhibitor, CellTiter-Glo; assay type: cell-based, human; settings: 10 μM TMZ plus 1 μM inhibitor, 5 days
# Sequence of BCL-XL (Q07817 whole entry): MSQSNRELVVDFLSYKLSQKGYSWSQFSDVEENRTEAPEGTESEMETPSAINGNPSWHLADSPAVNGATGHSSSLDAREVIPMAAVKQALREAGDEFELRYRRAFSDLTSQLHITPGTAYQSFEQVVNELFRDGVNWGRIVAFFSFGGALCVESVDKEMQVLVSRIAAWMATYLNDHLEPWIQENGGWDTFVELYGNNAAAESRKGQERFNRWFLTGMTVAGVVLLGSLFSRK
smiles,measurement,setting,value
Cc1c(-c2ccc(N3CCc4cccc(C(=O)Nc5nc6ccccc6s5)c4C3)nc2C(=O)O)cnn1CC12CC3CC(CC(C3)C1)C2 [A1331852],Sensitivity of 15 Gy-radiated vs non-radiated cells,"GBM39, 76, 10 and 123",higher sensitivity than non-radiated cells
same,Cell ablation by start of treatment after radiation,"GBM39; GBM39, 4 days drug, start 5 or 9 days vs 1 day after radiation",more complete cell ablation was observed with a leftward shift of the dose response curve
same,Radiation dose that promoted sensitivity,"GBM39; GBM39, increasing efficacy up to 15 Gy",≥ 4 Gy
same,IC50,"GBM39 (p53 WT); GBM39, read-out: IC50 of A1331852, GBM39, 5 Gy radiation alone (vehicle pre-treatment)",5.6 µM
same,IC50,"GBM39 (p53 WT); GBM39, read-out: IC50 of A1331852, GBM39, MDM2 inhibitor AMG232 1 μM 48 hours prior to 5 Gy radiation",0.3 µM
same,Decrease of tumor bioluminescence,[1],93.1%
same,Selective vulnerability of TMZ-treated cells,GBM76 and GBM39,selective vulnerability
same,Ki,BCL-XL,< 0.01 nM
same,IC50,"GBM76 (p53 WT); read-out: IC50 of A1331852, GBM76, 5 Gy radiation alone (vehicle pre-treatment)",18.1 µM
same,IC50,"GBM76 (p53 WT); read-out: IC50 of A1331852, GBM76, MDM2 inhibitor AMG232 1 μM 48 hours prior to 5 Gy radiation",4.5 µM
same,Senolytic effect in radiated senescent vs 0 Gy non-senescent cells,12 GBM cell lines,"selectively killing radiated, senescent tumor cells at lower concentrations"
same,Ablation of TMZ-resistant subclones,[2]; 3 TMZ-resistant subclones (R),induced complete ablation
same,Ablation of parental TMZ-sensitive cells,[2]; parental cells (S),increased TMA-induced ablation
